# Measurements: US20180117013A1, “METHODS OF TREATING LIVER DISEASE USING INDANE ACETIC ACID DERIVATIVES” (T3D THERAPEUTICS, INC., priority 2015, published 2018)
# Tested on: high fat diet ZDF rats
# Test: NAFLD/NASH animal model, high fat diet ZDF rats
# Assay type: in vivo, rat
# Settings: high fat diet ZDF male rats; all three doses (0.3, 1.0, 3 mg/kg) PO q.d. for 5 weeks
# Experimental: Twelve week old ZDF male rats (n=6 per group) were acclimated for 3 weeks prior to study initiation then fed with either a high fat (D12492+0.5% added cholesterol with 55% wt/vol fructose in drinking water) or low fat (DL12405J) diets. The compound of Example 10 above, vehicle, or pioglitizone were administered by oral gavage q.d. for 5 weeks as described in Table 1.
# Body weights were recorded weekly, and blood samples were collected from all animals at the end of weeks 4, 5, 6 and 7 following an overnight fast, and triglycerides, cholesterol, AST, ALT, insulin, and BG were measured in singlet. After week 8, the livers were harvested from all animals and weighed. The left lobe was placed in 10% NBF for NASH scoring by PAI (H % E staining, Oil Red O staining and Sirius Red staining). One half of the right lobe was snap-frozen for qPCR (to quantify type 1 collagen, insulin receptor, IGF-1, ceramide synthase 2, sphingomyelin phosphodiesterase 3, MCP-1 and IL-6). The remaining right lobe was snap-frozen for estimation of liver triglycerides and cholesterol.
smiles,measurement,value
"CCc1oc(-c2ccc(OC)cc2)nc1CCOc1ccc2c(c1)CC[C@H]2CC(=O)O [Example 10, (S)-2-(5-(2-(5-ethyl-2-(4-methoxyphenyl)oxazol-4-yl)ethoxy)-2,3-dihydro-1H-inden-1-yl)acetic acid]",protection from NASH like symptoms,protection from NASH like symptoms
